Data on twelve compounds can be found in patent US20110217300A1, “Quinazolinone Compounds and Methods of Use Thereof” (priority 2007, published 2011).

One test has as its system NCI-H460. Description: MTS cell viability assay. The format is cell-based, human. The following applies: Homo sapiens, NCI-H460, 72 h. As for the experimental part: Cell viability was determined by measuring the activity of dehydrogenase enzymes in metabolically active cells using a tetrazolium compound, MTS. The assay was performed as described in Promega Technical Bulletin No. 169 (CellTiter 96 Aqueous Non-Radioactive Cell Proliferation Assay). Two human cancer cell lines were assayed (see, Table 1). Cells were maintained at 37° C. and 5% CO2 in DMEM media (4.5 g/L glucose) supplemented with 10% heat-inactivated FBS, 10 mM L-glutamine, and 10 mM Hepes pH 7.5. Briefly, cells were seeded in 96-well plates as set forth in Table 1 and incubated for 16-24 hours. Candidate compounds were serially diluted in DMSO, further diluted in cell culture media, and then added to cells (final DMSO concentration of 0.33%). Cells were incubated in the presence of candidate compound for 72 hours. MTS stock solution (MTS 2 gm/L, PMS […] in PBS) was added to the cells (final concentration MTS […] and PMS 7.67 mg/L) and incubated for 4 hours. SDS was added to a final concentration of 1.4% and absorbance at 490 nm was measured within two hours using a plate reader. […] GI50 values were given in Table 2 for the compounds listed. The Compound Numbers in Table 2 correspond to the numbers listed parenthetically in the Example titles. Where multiple measurements were made by different technicians, both values are given.
Cell viability was determined for N-(3-amino-propyl)-3-chloro-N—[(R)-1-(7-chloro-4-oxo-3-phenylamino-3,4-dihydro-quinazolin-2-yl)-but-3-ynyl]-2-fluoro-benzamide (compound I of Table 2). The cell viability assay of Example 105 was used. GI50 was determined using a variety of cell lines. Cells were plated at 100-5000 cells per well. At least 2 replicates were performed. Where multiple measurements were made by different technicians, both values are given.
A general note: Tetrazolium dyes change colour on reduction, which living cells bring about.

For a further test, the target named is T1, HsEg5 (Homo sapiens, UniProt P52732).
T1 sequence (P52732 18-359 limits assumed): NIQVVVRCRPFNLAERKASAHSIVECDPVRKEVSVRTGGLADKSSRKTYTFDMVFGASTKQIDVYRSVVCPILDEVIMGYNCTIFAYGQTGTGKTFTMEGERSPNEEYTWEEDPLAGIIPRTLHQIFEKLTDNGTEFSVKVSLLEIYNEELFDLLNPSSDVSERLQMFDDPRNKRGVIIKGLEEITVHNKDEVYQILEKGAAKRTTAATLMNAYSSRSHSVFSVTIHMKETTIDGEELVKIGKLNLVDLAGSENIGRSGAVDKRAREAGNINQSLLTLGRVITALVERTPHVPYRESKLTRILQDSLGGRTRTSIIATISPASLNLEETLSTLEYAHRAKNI
As to the kind of experiment: Fluorescence detection of HsEg5 ATPase activity (ADP Quest, automated). The format is biochemical. The procedure:
Purified HsEg5 motor fragment was activated by mixture with preformed MT polymer (Cytoskeleton, Denver, Colo.) at room temperature for 20 minutes. MT activated ATPase activity was measured using ADP Quest (DiscoverX, Fremont, Calif.) in which a coupled-enzyme assay can translate accumulation of ADP into detectable resorufin signal (FIG. 1A). Fluorescence was measured at λEx=535 nm and λEm=590 nm on a Wallac Victor 2 plate reader (Perkin-Elmer Life Sciences, Boston, Mass.). Reagent A and B from ADP Quest kit were aliquoted and frozen in −20° C. before use. A standard curve was determined using the provided ADP reagent in the reaction buffer that consisted of 50 mM Pipes (pH7.0), 5.0 mM MgCl2, 20 μM paclitaxel and […]. The same buffer was used for Km determination with HsEg5 concentration of 10 nM.
For inhibitor screening, 4 μL of compounds were incubated with 10 μL of MT-activated HsEg5 such that the final concentrations for compound range from 100 μM to 5 nM (1 to 3 serial dilutions, final concentration) and final concentration for HsEg5 is 10 nM. The mixture was incubated at room temperature for 10 minutes with mild shaking. The screening assay contained 0.3% DMSO in all reaction wells. We used wells containing only DMSO as negative controls and wells without ATP as background. Addition of 6 μL ATP (final concentration of 20 μM) initiated the ATP hydrolysis reaction. The 20 μL-reaction was allowed to proceed at room temperature for 10 minutes before addition of 10 μL of reagent A and 20 μL of reagent B. After 20-minute development at room temperature, the fluorescence was measured and data analysis was performed using GraphPad Prism version 3.0 (GraphPad Software, San Diego, Calif.)
For the purpose of high-throughput screening, we automated the fluorescence assay using a Sciclone ALH3000 (Caliper Life Sciences, Hopkinton, Mass.) and Multidrop 384 (Thermo Electron Corp, Waltham, Mass.). First, compound dilution plates for screening (at 10 μM or 1 μM) and ICso determination (10 data points from 100 μM to 5 nM) were made in Corning polypropylene V-bottom 96-well plates. In both cases, the 1st and 7th column contained background (No ATP addition) and negative control (DMSO only). For screening compounds at 10 μM or 1 μM, […] of each compound at 50 μM or 5 μM were used in a 20 μL assay reaction. For IC50 determination, the mother compound plate contained 24 μL of tested compound at stock concentration of 30 mM. 6 μL of each test compound in 30 mM was added to each well in the column 2 and followed by 1:3 serial dilutions in DMSO with the Sciclone ALH3000. 234 μL of assay buffer was then added using a Multidrop 384. Then 4 μL of diluted compounds was used in 20 μL-reaction. The final concentration was a 1:300 dilution of the original stock. Second, a reagent source plate was prepared with three rows designated to MT-activated HsEg5, Reagent A and Reagent B respectively. MTs were diluted with assay buffer and polymerized at room temperature for 10 minutes. Just before use, HsEg5 protein was thawed on ice and activated by addition of MT polymers at room temperature for 20 minutes. HsEg5/MT was then added to Row A of the reagent source plate. The final assay concentration was 10 nM HsEg5 and 500 nM MTs. Reagent A and B were stored at −20° C. and thawed at room temperature followed by transferring to rows B & C of the reagent source plate. Third, ATP substrate plate was prepared by transferring 80 μM ATP solution to each well of a V-shape 96-well plate except the wells in the first row where assay buffer was added instead to have no-ATP blanks. The final concentration for ATP in the assay was 20 μM.
The assay was programmed on Sciclone ALH3000 with the following procedures: 1) Addition of 4 μL compounds to the assay plate, followed by addition of 10 μL of MT-activated HsEg5. […]

In a further test the test system is A549. As to the kind of experiment: MTS cell viability assay. In kind it is cell-based. The following applies: Homo sapiens, A549 non small cell lung, 72 hours, read-out: MTS NCI A549 GI50. The procedure:
Two human cancer cell lines were assayed (see, Table 1). Cells were maintained at 37° C. and 5% CO2 in DMEM media (4.5 g/L glucose) supplemented with 10% heat-inactivated FBS, 10 mM L-glutamine, and 10 mM Hepes pH 7.5. Briefly, cells were seeded in 96-well plates as set forth in Table 1 and incubated for 16-24 hours. Candidate compounds were serially diluted in DMSO, further diluted in cell culture media, and then added to cells (final DMSO concentration of 0.33%). Cells were incubated in the presence of candidate compound for 72 hours. […] The Compound Numbers in Table 2 correspond to the numbers listed parenthetically in the Example titles.

Setting [1] is: read-out: MTS NCI H460 GI50, NCI-H460 non small cell lung, 72 hours.

Where two headings read alike, the source gives them in different places.

In the case of `CCC(c1nc2cc(Cl)ccc2c(=O)n1Nc1ccccc1)N(CCCN)C(=O)c1ccc(-n2cccn2)cc1` (stereo not drawn) [Compound 23, N-(3-Aminopropyl)-N-[1-(3-anilino-7-chloro-4-oxo-3,4-dihydroquinazolin-2-yl)propyl]-4-(1H-pyrazol-1-yl)benzamide], the GI50 (in general, the concentration at which growth is held to half of that of the control) came out at 1120 nM in the test on NCI-H460 (setting [1]) and 2490 nM in the test on A549 (A549, 72 h). For the same compound, 1020 nM corresponded to half-maximal inhibition at HsEg5 (IC50).

In the case of `CCC(c1nc2cc(Cl)ccc2c(=O)n1Nc1ccccc1)N(CCCN)C(=O)c1cccc(F)c1F` (stereo not drawn) [Compound 7, N-(3-Aminopropyl)-N-[1-(3-anilino-7-chloro-4-oxo-3,4-dihydroquinazolin-2-yl)propyl]-2,3-difluorobenzamide], the GI50 was 1770 nM with NCI-H460 (read-out: MTS NCI H460 GI50) and 2570 nM in the test on A549. In addition, it took 566 nM to reach half-maximal inhibition on HsEg5 (IC50).

For `CCC(c1nc2cc(Cl)ccc2c(=O)n1Nc1ccccc1)N(CCCN)C(=O)c1ccc(F)c(F)c1F` (stereo not drawn) [Compound 10, N-(3-Aminopropyl)-N-[1-(3-anilino-7-chloro-4-oxo-3,4-dihydroquinazolin-2-yl)propyl]-2,3,4-trifluorobenzamide], the GI50 was determined as 1140 nM in the test on NCI-H460 (setting [1]) and 2360 nM in the test with A549 (A549, 72 h). Further, on HsEg5, the IC50 (as a rule, the concentration that gives 50% inhibition) is 599 nM.

In the case of `CCC(c1nc2cc(Cl)ccc2c(=O)n1Nc1ccccc1)N(CCCN)C(=O)c1cc(Cl)cc(Cl)c1` (stereo not drawn) [Compound 11, N-(3-Aminopropyl)-N-[1-(3-anilino-7-chloro-4-oxo-3,4-dihydroquinazolin-2-yl)propyl]-3,5-dichlorobenzamide], the GI50 with NCI-H460 (read-out: MTS NCI H460 GI50) was found to be 2440 nM; with A549, 3010 nM. Further, on HsEg5, the IC50 came out at 735 nM.

For the compound `CCC(c1nc2cc(Cl)ccc2c(=O)n1Nc1ccccc1)N(CCCN)C(=O)c1cccc(Cl)c1Cl` (stereo not drawn) [Compound 12, N-(3-Aminopropyl)-N-[1-(3-anilino-7-chloro-4-oxo-3,4-dihydroquinazolin-2-yl)propyl]-2,3-dichlorobenzamide], the GI50 with NCI-H460 (read-out: MTS NCI H460 GI50) is 2110 nM; with A549, 3370 nM. This compound displayed an IC50 at HsEg5 of 818 nM.

In the case of `CSCCC(c1nc2cc(Cl)ccc2c(=O)n1Nc1ccccc1)N(CCCN)C(=O)c1ccc(C)c(F)c1F` (stereo not drawn) [Compound 39, N-(3-Aminopropyl)-N-[1-(3-anilino-7-chloro-4-oxo-3,4-dihydroquinazolin-2-yl)-3-(methylthio)propyl]-2,3-difluoro-4-methylbenzamide], the values for the GI50 in the test with NCI-H460 (read-out: MTS NCI H460 GI50) and with A549 were 4490 nM and 6090 nM, respectively. The IC50 against HsEg5 amounted to 3010 nM.

For the compound `CC(C)CC(c1nc2cc(Cl)ccc2c(=O)n1Nc1ccccc1)N(CCCN)C(=O)c1ccc(F)c(F)c1` (stereo not drawn) [Compound 35, N-(3-Aminopropyl)-N-[1-(3-anilino-7-chloro-4-oxo-3,4-dihydroquinazolin-2-yl)-3-methylbutyl]-3,4-difluorobenzamide], the GI50 in the test with NCI-H460 (read-out: MTS NCI H460 GI50) was determined as 6150 nM; with A549, 4520 nM. The compound further displayed an IC50 against HsEg5 of 1960 nM.

For the compound `CCC(c1nc2ccc(Cl)cc2c(=O)n1Nc1ccccc1)N(CCCN)C(=O)c1ccc(C)cc1` (stereo not drawn) [Compound 27, N-(3-Aminopropyl)-N-[1-(3-anilino-6-chloro-4-oxo-3,4-dihydroquinazolin-2-yl)propyl]-4-methylbenzamide], the figures for the GI50 in the test on NCI-H460 (read-out: MTS NCI H460 GI50) and with A549 were 1080 nM and 2220 nM, respectively. The compound also displayed an IC50 against HsEg5 of 1280 nM.

With `C#CCC(c1nc2cc(Cl)ccc2c(=O)n1Nc1ccccc1)N(CCCN)C(=O)c1cc(F)c(Cl)cc1F` (stereo not drawn) [Compound 56, N-(3-Aminopropyl)-N-[1-(3-anilino-7-chloro-4-oxo-3,4-dihydroquinazolin-2-yl)but-3-yn-1-yl]-4-chloro-2,5-difluorobenzamide], the GI50 in the test with NCI-H460 (read-out: MTS NCI H460 GI50) amounted to 1860 nM; with A549, 3820 nM. On HsEg5, 138 nM corresponded to half-maximal inhibition (IC50).

Regarding `C#CCC(c1nc2cc(Cl)ccc2c(=O)n1Nc1ccccc1)N(CCCN)C(=O)c1cccc(Cl)c1F` (stereo not drawn) [Compound 57, N-(3-Aminopropyl)-N-[1-(3-anilino-7-chloro-4-oxo-3,4-dihydroquinazolin-2-yl)but-3-yn-1-yl]-3-chloro-2-fluorobenzamide], the GI50 in the test with NCI-H460 (read-out: MTS NCI H460 GI50) turned out to be 766 nM; in the test with A549, 433 nM. Besides, at HsEg5, the IC50 was 50.6 nM.

In the case of `CCC(c1nc2cc(Cl)ccc2c(=O)n1Nc1ccccc1)N(CCN)C(=O)c1ccc(F)c(C)c1` (stereo not drawn) [Compound 63, N-(2-Aminoethyl)-N-[1-(3-anilino-7-chloro-4-oxo-3,4-dihydroquinazolin-2-yl)propyl]-4-fluoro-3-methylbenzamide], the GI50 was 10500 nM in the test on NCI-H460 (read-out: MTS NCI H460 GI50) and 7020 nM in the test on A549. The compound also registered an IC50 against HsEg5 of 3340 nM.

As to `NCCCN(C(=O)c1ccc(Br)cc1)C(Cc1cccs1)c1nc2cc(Cl)ccc2c(=O)n1Nc1ccccc1` (stereo not drawn) [Compound 48, N-(3-Aminopropyl)-N-[1-(3-anilino-7-chloro-4-oxo-3,4-dihydroquinazolin-2-yl)-2-(2-thienyl)ethyl]-4-bromobenzamide], the GI50 is 4360 nM in the test with NCI-H460 (read-out: MTS NCI H460 GI50) and 4930 nM in the test with A549. Also, on HsEg5, the IC50 turned out to be 2570 nM.
